Experimental data from patent publication US20230023770A1, “Preparation of Drug for Treating Alzheimer's Disease (AD)” (Plantarx Limited, priority 2019, published 2023).
“Also recorded” adds a separate entry of the source.

Key:
Aβ oligomer-treated mice [1] = assay: Morris water maze test (spatial cognition); format: in vivo, ICR mice; settings: acyclovir 500 mg/kg, DXMT 2 mg/kg, donepezil 2.5 mg/kg; for time in the target area compared with the Aβ group: probe trial, platform removed, 90 sec
Method: (§1) The acyclovir, DXMT and donepezil were dissolved in water.
(§2) Mice recover for 3 d without any experiments.
The spatial memory is assessed with the Morris water maze test^10. The Morris water maze is a circular pool (110 cm in diameter) filled with water at a temperature of 23±2° C., and has a platform. Except on a last day, the platform is always placed in a center of a northwest quadrant. Swimming tracks are recorded by a video recorder connected to a computer. Each mouse is trained on positioning the platform over a four-day trial, and learning is assessed daily for four consecutive days. The time mice take to enter a hidden platform is measured. On the last day, the platform is removed and the mice are trained to swim for 90 sec for a probe trial. The swimming times are recorded in the four quadrants of the pool. A tendency to appear in the quadrant occupied before the platform indicates a spatial memory ability.

interleukin-6 (IL-6) = assay: ELISA of IL-6 in mouse hippocampus; format: in vivo, ICR mice; settings: acyclovir 500 mg/kg, DXMT 2 mg/kg, donepezil 2.5 mg/kg
Method: as §1, §2
(§3) One day after the Morris water maze test, mice are deeply anesthetized and transcardially perfused with an ice-cold saline. The brain is quickly dissected. Hippocampal proteins are extracted and stored at −80° C. prior to use in a Western blotting assay (4 mice per group) and an enzyme-linked immunosorbent assay (ELISA, 3 mice per group). Intact brain tissues (3 mice per group) are stored in a formalin solution at […] prior to staining using immunohistochemistry (IHC).
Determination was conducted on concentrations of interleukin-6 (IL-6) and tumor necrosis factor-α (TNF-α) in mouse hippocampus using freshly prepared brain tissues. Brain samples are homogenized in a 0.1M phosphate buffered saline. A resulting brain extract is centrifuged to 2,000 g at 4° C. for 15 min. Concentrations of IL-6 and TNF-α are determined with an ELISA kit (Excell Bio, Shanghai, China) according to the manufacturer's protocol. An absorbance is read.

IL-17 = assay: Western blotting of IL-17 in mouse hippocampus; format: in vivo, ICR mice; settings: acyclovir 500 mg/kg, DXMT 2 mg/kg, donepezil 2.5 mg/kg
Method: as §1, §2, §3
(§4) The Western blotting assay is conducted as previously described^11. Briefly, the brain tissues from hippocampus are extracted in a lysis buffer for 1 min and centrifuged at 16,000 g for 10 min. Protein levels in a supernatant are estimated by a Bradford analysis, the proteins are separated on an SDS-polyacrylamide gel, and electrotransferred to a polyvinylidene fluoride membrane. After 2 h of incubation with 5% skim milk in TBST, incubation is conducted for 12 h with corresponding antibodies Tau, IL-17 (Santa Cruz Biotechnology, Shanghai, China), pSer396-Tau, PSD-95, and β-actin (Cell Signaling Technology, Inc., Beverly, Mass., USA). […] The data is expressed as a ratio of an optical density (OD) compared to the control and a statistical analysis.

[2] = test system: glial fibrillary acidic protein (GFAP); assay: IHC staining of GFAP (astrocyte activation) in hippocampus; format: in vivo, ICR mice; settings: acyclovir 500 mg/kg, DXMT 2 mg/kg, donepezil 2.5 mg/kg
Method: as §1, §2, §3
(§5) IHC staining is conducted according to previously reported protocols^11. Briefly, after the Morris water maze test, the brains are dissected and incubated with 4% paraformaldehyde for 1 d. Brain specimens are dehydrated, paraffin-embedded, and sliced into 4-micron slices. Hippocampal sections are dewaxed and rehydrated. Treatment with 3% H2O2 is conducted for 10 min to inhibit a cellular peroxidase activity. Sections are incubated overnight at 4° C. with primary antibodies to a CD45 antigen and a glial fibrillary acidic protein (GFAP). […] The sections are labeled with DAB and analyzed colorimetrically. A mean OD of the area is analyzed using Image Pro 6.0 (Media Cybernetics Inc., MD, USA). […] Positive area and OD are determined by measurements on randomly selected microscope fields on each slide. […]

CD45 = assay: IHC staining of CD45 (microglia activation) in hippocampus; format: in vivo, ICR mice; settings: acyclovir 500 mg/kg, DXMT 2 mg/kg
Method: as §1, §2, §3, §5

PSD-95 = assay: Western blotting of PSD-95 in mouse hippocampus; format: in vivo, ICR mice; settings: acyclovir 500 mg/kg, DXMT 2 mg/kg, donepezil 2.5 mg/kg
Method: as §1, §2, §3, §4

pSer396-Tau = assay: Western blotting of pTau in mouse hippocampus; format: in vivo, ICR mice; settings: acyclovir 500 mg/kg, DXMT 2 mg/kg
Method: as §1, §2, §3, §4

HSV-1-infected cells = settings: cited from earlier work
Aβ oligomer-treated mice [3] = assay: Open field experiment (motor activity); settings: day 17, 5 min, acyclovir 500 mg/kg, DXMT 2 mg/kg
Method: Zhejiang Academy of Medical Sciences has provided ICR mice weighing about 25 g. The mice are subjected to a 12-h illumination/darkness cycle at 22±2° C. (humidity: 50±10%) and are provided with water and standard food. The acyclovir, DXMT and donepezil were dissolved in water. The mice are randomly divided into 6 groups with 10 mice in each group, including: a control group, an Aβ oligomer group, an Aβ+500 mg/kg acyclovir group, an Aβ+2 mg/kg DXMT group, an Aβ+500 mg/kg acyclovir, 2 mg/kg DXMT group, and an Aβ+2.5 mg/kg donepezil group. The mice are anesthetized by intraperitoneal injection of sodium pentobarbital (50 mg/kg) and placed in a stereotaxic apparatus (RWD Life Science Co., Ltd., Shenzhen, China).
On day 1, the Aβ oligomer was injected into a bilateral ventricle region. A micro-dose is injected (1 μl/side) over 5 min. To reduce backflow, the cannula is left in place for 5 min. […] Mice recover for 3 d without any experiments. […]
To analyze a motor activity and exploratory behavior, the mice are housed in an open field (50 cm×50 cm×39 cm) with white plywood walls and brown floors. […] The number of crossed lines of four paws and the number of feedings are recorded using a hand-held counter and stopwatch, which are used to mark the motor activity and exploratory behavior. […]

[4] = Body weight of Aβ oligomer-treated mice during treatment; format: in vivo, ICR mice; settings: last day of experiment, gavage 13 d twice a day, acyclovir 500 mg/kg, DXMT 2 mg/kg, donepezil 2.5 mg/kg
Method: as §1, §2
Briefly, on day 1, the Aβ oligomers are injected into both sides of the mouse hippocampus. The mice are let recover for 3 d. On days 4 to 16, mice are treated differently for 13 d. On day 17, a motor function of the mice is examined by the open field test. On days 18-24, the spatial cognition is tested by the Morris water maze test. On day 25, the mice are sacrificed for biochemical studies.
Digestive disturbance is one of the common adverse effects of acyclovir. Long-term treatment with acyclovir may cause indigestion and malnutrition, leading to weight loss. Therefore, the body weight of the mice is measured every 2 d to 3 d during the experiment.

SMILES: Nc1nc2c(ncn2COCCO)c(=O)[nH]1 [acyclovir]
- time in the target area compared with the Aβ group (Aβ oligomer-treated mice [1]): do not show a better performance
- Aβ-induced increase in IL-6 expression compared with the Aβ group (interleukin-6 (IL-6)): does not significantly reduce IL-6 production
- Aβ-induced increase in IL-17 expression compared with the Aβ group (IL-17): cannot reduce the expression of IL-17
- Aβ-induced increase in the mean OD of GFAP compared with the Aβ group [2]: significantly reduce; also recorded: neither acyclovir nor donepezil treatment can change
- Aβ-induced increase in CD45 mean OD compared with the Aβ group (CD45): can inhibit the activation of microglia
- expression of PSD-95 compared with the Aβ group (PSD-95): does not alter the expression of PSD-95
- Aβ-induced increase in pTau expression compared with the Aβ group (pSer396-Tau): significantly attenuate
- inhibition of aberrant tau phosphorylation (HSV-1-infected cells): ~100%
- reduction of HSV-1-induced Aβ accumulation (HSV-1-infected cells): 70%
- motor function (number of standing, number of crossing lines) (Aβ oligomer-treated mice [3]): do not significantly alter the motor function

SMILES: COc1cc2c(cc1OC)C(=O)C(CC1CCN(Cc3ccccc3)CC1)C2 (centres unmarked) [donepezil]
- body weight compared with the control group [4]: does not change the body weight
- time to find the hidden platform (latency) compared with the Aβ group (Aβ oligomer-treated mice [1]; last day of training, gavage 13 d): significantly shorter
- time in the target area compared with the Aβ group (Aβ oligomer-treated mice [1]): significantly longer
- Aβ-induced increase in IL-6 expression compared with the Aβ group (interleukin-6 (IL-6)): does not alter the expression of IL-6
- Aβ-induced increase in IL-17 expression compared with the Aβ group (IL-17): does not alter the expression of IL-17
- Aβ-induced increase in the mean OD of GFAP compared with the Aβ group [2]: neither acyclovir nor donepezil treatment can change
- expression of PSD-95 compared with the Aβ group (PSD-95): does not alter the expression of PSD-95
